# Biological target: T1, GFRα1-RET (Homo sapiens, UniProt P56159)
# T1 construct: expressed in transfected cells; host or cells: MG87 murine fibroblast
# Assay: Luciferase assay: activation of Elk1 signaling in reporter-gene cells expressing GFRα1-RET (MG87 murine fibroblast stably transfected with PathDetect Elk-1, GFRα1, and RET)
# Type: cell-based
# Settings: Table 4; MG87 murine fibroblasts with PathDetect Elk-1, GFRα1, RET; 6 concentrations, duplicate, two times independently; agonist/activator activity; read-out: Luciferase Assay EC50
# Protocol: The purpose of this experiment was to evaluate the GFRα1-RET activity of the compounds 001-060 according to the invention.
# The compounds were tested for their activating activity of Elk1 signaling using the previously developed reporter-gene-based system in cells expressing GFRα1-RET (MG87 murine fibroblast stably transfected with PathDetect Elk-1, GFRα1, and RET) disclosed in Sidorova, Y. A. et al.: “Persephin signaling through GFRα1: The potential for the treatment of Parkinson's disease.” Molecular and Cellular Neuroscience, July 2010, Vol. 44, pp. 223-232. DOI: 10.1016/j.mcn.2010.03.009. For EC50 determination, a dose-response test was performed using 6 concentrations of each tested compound. Dose-response curves were fitted using the sigmoidal dose-response (variable slope) analysis in GraphPad Prism program (Graph Pad Inc) and EC50 of agonist/activator activity was calculated. Dose-response experiments were all performed in duplicate, two times independently.
# The compounds were tested for their activating activity of Elk1 signaling using the same materials and methods than for the compounds according to the invention (Example 2 herein, section “Materials and methods”).
# T1 sequence (P56159 25-429 limits assumed): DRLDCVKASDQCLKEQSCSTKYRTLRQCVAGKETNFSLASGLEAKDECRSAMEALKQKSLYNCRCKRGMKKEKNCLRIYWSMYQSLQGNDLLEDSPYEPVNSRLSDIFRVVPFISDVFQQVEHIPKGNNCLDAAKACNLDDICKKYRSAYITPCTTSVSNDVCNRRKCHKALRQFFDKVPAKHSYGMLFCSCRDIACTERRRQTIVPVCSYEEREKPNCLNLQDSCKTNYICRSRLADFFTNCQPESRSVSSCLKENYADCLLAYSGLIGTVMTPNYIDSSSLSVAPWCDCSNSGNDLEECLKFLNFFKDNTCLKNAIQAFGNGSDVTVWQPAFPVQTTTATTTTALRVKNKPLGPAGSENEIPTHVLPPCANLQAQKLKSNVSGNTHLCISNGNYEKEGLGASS
# T1 sequence (P07949 29-1114 partner): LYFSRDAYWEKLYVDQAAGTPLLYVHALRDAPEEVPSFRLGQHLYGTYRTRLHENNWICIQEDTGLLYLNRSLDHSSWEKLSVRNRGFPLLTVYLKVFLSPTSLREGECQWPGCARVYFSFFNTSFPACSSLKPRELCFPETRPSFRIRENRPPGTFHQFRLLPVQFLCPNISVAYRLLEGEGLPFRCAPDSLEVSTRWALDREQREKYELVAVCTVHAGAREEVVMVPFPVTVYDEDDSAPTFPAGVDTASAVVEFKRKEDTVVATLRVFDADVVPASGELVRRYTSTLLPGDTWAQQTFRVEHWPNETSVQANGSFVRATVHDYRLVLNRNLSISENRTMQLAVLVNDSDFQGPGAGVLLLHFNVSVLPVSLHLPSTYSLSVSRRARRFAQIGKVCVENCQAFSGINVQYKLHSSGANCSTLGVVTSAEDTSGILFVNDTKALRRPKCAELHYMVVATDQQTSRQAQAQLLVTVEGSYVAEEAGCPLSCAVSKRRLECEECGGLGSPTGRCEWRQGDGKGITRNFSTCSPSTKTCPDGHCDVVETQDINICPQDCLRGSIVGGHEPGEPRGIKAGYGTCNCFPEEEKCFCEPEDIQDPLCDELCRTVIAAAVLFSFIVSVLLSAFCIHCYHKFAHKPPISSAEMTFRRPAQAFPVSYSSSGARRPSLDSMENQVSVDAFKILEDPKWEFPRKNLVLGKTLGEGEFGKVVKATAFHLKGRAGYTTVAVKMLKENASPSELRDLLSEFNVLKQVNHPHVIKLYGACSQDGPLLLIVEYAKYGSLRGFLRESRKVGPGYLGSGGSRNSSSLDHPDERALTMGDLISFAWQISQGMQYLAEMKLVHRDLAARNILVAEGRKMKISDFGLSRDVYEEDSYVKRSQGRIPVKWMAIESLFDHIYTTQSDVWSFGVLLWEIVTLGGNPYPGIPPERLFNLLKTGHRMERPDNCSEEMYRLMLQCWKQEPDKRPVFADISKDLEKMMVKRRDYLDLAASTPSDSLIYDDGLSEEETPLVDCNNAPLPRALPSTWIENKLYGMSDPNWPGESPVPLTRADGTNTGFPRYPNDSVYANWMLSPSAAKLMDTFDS
row,SMILES,EC50
1,"CCCN(C)S(=O)(=O)c1ccc(OC)c(N2CCN(C(=O)c3cc(F)c(F)cc3Cl)CC2)c1 [Compound 005, 3-[4-(2-chloro-4,5-difluoro-benzoyl)piperazin-1-yl]-4-methoxy-N-methyl-N-propyl-benzenesulfonamide]",1 to 5 µM
2,"CCCN(C)S(=O)(=O)c1ccc(F)c(N2CCN(C(=O)c3ccc(F)cc3C(F)(F)F)CC2)c1 [Compound 042, 4-fluoro-3-[4-[4-fluoro-2-(trifluoromethyl)benzoyl]piperazin-1-yl]-N-methyl-N-propyl-benzenesulfonamide]",1 to 5 µM
3,"COc1ccc(S(=O)(=O)N2CCCC2)cc1N1CCN(C(=O)c2ccc(Cl)cc2Cl)CC1 [Compound 003, (2,4-dichlorophenyl)-[4-(2-methoxy-5-pyrrolidin-1-ylsulfonyl-phenyl)piperazin-1-yl]methanone]",10 to 50 µM
4,"COc1ccc(S(=O)(=O)N(C)Cc2ccccc2)cc1N1CCN(C(=O)c2ccc(F)cc2Cl)CC1 [Compound 019, N-benzyl-3-[4-(2-chloro-4-fluoro-benzoyl)piperazin-1-yl]-4-methoxy-N-methyl-benzenesulfonamide]",10 to 50 µM
5,"COc1ccc(S(=O)(=O)N(C)C(C)(C)C)cc1N1CCN(C(=O)c2ccc(F)cc2Cl)CC1 [Compound 033, N-tert-butyl-3-[4-(2-chloro-4-fluoro-benzoyl)piperazin-1-yl]-4-methoxy-N-methyl-benzenesulfonamide]",5 to 10 µM
6,"COc1ccc(S(=O)(=O)N2CCC(c3ccc(F)cc3)CC2)cc1N1CCN(C(=O)c2ccc(F)cc2Cl)CC1 [Compound 050, (2-chloro-4-fluoro-phenyl)-[4-[5-[[4-(4-fluorophenyl)-1-piperidyl]sulfonyl]-2-methoxy-phenyl]piperazin-1-yl]methanone]",< 1 µM
7,"COc1ccc(S(=O)(=O)N2CCC(c3ccccc3)C2)cc1N1CCN(C(=O)c2ccc(F)cc2Cl)CC1 (centres unmarked) [Compound 028, (2-chloro-4-fluoro-phenyl)-[4-[2-methoxy-5-[3-phenylpyrrolidin-1-yl]sulfonyl-phenyl]piperazin-1-yl]methanone]",1 to 5 µM
8,"COc1ccc(S(=O)(=O)N2CCCC2(C)C)cc1N1CCN(C(=O)c2ccc(F)cc2Cl)CC1 [Compound 060, (2-chloro-4-fluoro-phenyl)-[4-[5-(2,2-dimethylpyrrolidin-1-yl)sulfonyl-2-methoxy-phenyl]piperazin-1-yl]methanone]",1 to 5 µM
9,"COc1ccc(S(=O)(=O)N2CCC(OCc3ccccc3)C2)cc1N1CCN(C(=O)c2ccc(F)cc2Cl)CC1 (centres unmarked) [Compound 039, (2-chloro-4-fluoro-phenyl)-[4-[2-methoxy-5-[3-benzyloxypyrrolidin-1-yl]sulfonyl-phenyl]piperazin-1-yl]methanone]",1 to 5 µM
10,"COc1ccc(S(=O)(=O)N(C)C2(C)COC2)cc1N1CCN(C(=O)c2ccc(F)cc2Cl)CC1 [Compound 018, 3-[4-(2-chloro-4-fluoro-benzoyl)piperazin-1-yl]-4-methoxy-N-methyl-N-(3-methyloxetan-3-yl)benzenesulfonamide]",10 to 50 µM
11,"COc1ccc(S(=O)(=O)N2CCC(C(F)(F)F)CC2)cc1N1CCN(C(=O)c2ccc(F)cc2Cl)CC1 [Compound 031, (2-chloro-4-fluoro-phenyl)-[4-[2-methoxy-5-[[4-(trifluoromethyl)-1-piperidyl]sulfonyl]phenyl]piperazin-1-yl]methanone]",1 to 5 µM
12,"COc1ccc(S(=O)(=O)N2CCC(O)(c3ccccc3)CC2)cc1N1CCN(C(=O)c2ccc(F)cc2Cl)CC1 [Compound 011, (2-chloro-4-fluoro-phenyl)-[4-[5-[(4-hydroxy-4-phenyl-1-piperidyl)sulfonyl]-2-methoxy-phenyl]piperazin-1-yl]methanone]",5 to 10 µM
13,"COc1ccc(S(=O)(=O)N2CC3CN(Cc4ccccc4)CC3C2)cc1N1CCN(C(=O)c2ccc(F)cc2Cl)CC1 (centres unmarked) [Compound 040, [4-[5-[[2-benzyl-1,3,3a,4,6,6a-hexahydropyrrolo[3,4-c]pyrrol-5-yl]sulfonyl]-2-methoxy-phenyl]piperazin-1-yl]-(2-chloro-4-fluoro-phenyl)methanone]",10 to 50 µM
14,"CCCN(C)S(=O)(=O)c1ccc(O)c(N2CCN(C(=O)c3ccc(F)cc3C(F)(F)F)CC2)c1 [Compound 048, 3-[4-[4-fluoro-2-(trifluoromethyl)benzoyl]piperazin-1-yl]-4-hydroxy-N-methyl-N-propyl-benzenesulfonamide]",5 to 10 µM
15,"COc1ccc(S(=O)(=O)N2CCN(CC(C)c3ccccc3)CC2)cc1N1CCN(C(=O)c2ccc(F)cc2Cl)CC1 (racemic) [Compound 053, (2-chloro-4-fluoro-phenyl)-[4-[2-methoxy-5-[4-[rac-(2R)-2-phenylpropyl]piperazin-1-yl]sulfonyl-phenyl]piperazin-1-yl]methanone]",1 to 5 µM
16,"COc1ccc(S(=O)(=O)NC2(C)CCCCC2)cc1N1CCN(C(=O)c2ccc(F)cc2Cl)CC1 [Compound 035, 3-[4-(2-chloro-4-fluoro-benzoyl)piperazin-1-yl]-4-methoxy-N-(1-methylcyclohexyl)benzenesulfonamide]",1 to 5 µM
17,"CCCN(C)S(=O)(=O)c1ccc(OC)c(N2CCN(C(=O)c3ccc(F)cc3C(F)F)CC2)c1 [Compound 006, 3-[4-[2-(difluoromethyl)-4-fluoro-benzoyl]piperazin-1-yl]-4-methoxy-N-methyl-N-propyl-benzenesulfonamide]",1 to 5 µM
18,"COc1ccc(S(=O)(=O)N(C)CC2CCCCC2)cc1N1CCN(C(=O)c2ccc(F)cc2Cl)CC1 [Compound 015, 3-[4-(2-chloro-4-fluoro-benzoyl)piperazin-1-yl]-N-(cyclohexylmethyl)-4-methoxy-N-methyl-benzenesulfonamide]",5 to 10 µM
19,"COc1ccc(S(=O)(=O)N(C)C2CCCCC2)cc1N1CCN(C(=O)c2ccc(F)cc2Cl)CC1 [Compound 017, 3-[4-(2-chloro-4-fluoro-benzoyl)piperazin-1-yl]-N-cyclohexyl-4-methoxy-N-methyl-benzenesulfonamide]",1 to 5 µM
20,"COc1ccc(S(=O)(=O)N(C)C2CCCC2)cc1N1CCN(C(=O)c2ccc(F)cc2Cl)CC1 [Compound 016, 3-[4-(2-chloro-4-fluoro-benzoyl)piperazin-1-yl]-N-cyclopentyl-4-methoxy-N-methyl-benzenesulfonamide]",5 to 10 µM
21,"Cc1cc(S(=O)(=O)N2CCC(c3ccc(F)cc3)CC2)cc(N2CCN(C(=O)c3ccc(F)cc3Cl)CC2)c1O [Compound 056, (2-chloro-4-fluoro-phenyl)-[4-[5-[[4-(4-fluorophenyl)-1-piperidyl]sulfonyl]-2-hydroxy-3-methyl-phenyl]piperazin-1-yl]methanone]",< 1 µM
22,"CCCN(C)S(=O)(=O)c1cc2c(c(N3CCN(C(=O)c4ccc(F)cc4C(F)(F)F)CC3)c1)OCC2 [Compound 043, 7-[4-[4-fluoro-2-(trifluoromethyl)benzoyl]piperazin-1-yl]-N-methyl-N-propyl-2,3-dihydrobenzofuran-5-sulfonamide]",1 to 5 µM
23,"COc1ccc(S(=O)(=O)N2CC3CN(C(=O)OC(C)(C)C)CC3C2)cc1N1CCN(C(=O)c2ccc(F)cc2Cl)CC1 (centres unmarked) [Compound 022, tert-butyl 5-[3-[4-(2-chloro-4-fluoro-benzoyl)piperazin-1-yl]-4-methoxy-phenyl]sulfonyl-1,3,3a,4,6,6a-hexahydropyrrolo[3,4-c]pyrrole-2-carboxylate]",10 to 50 µM
24,"CCN(CC)S(=O)(=O)c1ccc(OC)c(N2CCN(C(=O)c3cc(F)c(F)cc3Cl)CC2)c1 [Compound 002, 3-[4-(2-chloro-4,5-difluoro-benzoyl)piperazin-1-yl]-N,N-diethyl-4-methoxy-benzenesulfonamide]",5 to 10 µM
25,"COc1ccc(S(=O)(=O)N2CCN(CCc3ccc(F)cc3)CC2)cc1N1CCN(C(=O)c2ccc(F)cc2Cl)CC1 [Compound 052, (2-chloro-4-fluoro-phenyl)-[4-[5-[4-[2-(4-fluorophenyl)ethyl]piperazin-1-yl]sulfonyl-2-methoxy-phenyl]piperazin-1-yl]methanone]",1 to 5 µM
26,"COc1ccc(S(=O)(=O)N2CCC(CCc3ccccc3)CC2)cc1N1CCN(C(=O)c2ccc(F)cc2Cl)CC1 [Compound 024, (2-chloro-4-fluoro-phenyl)-[4-[2-methoxy-5-[[4-(2-phenylethyl)-1-piperidyl]sulfonyl]phenyl]piperazin-1-yl]methanone]",< 1 µM
27,"CCN(CC)S(=O)(=O)c1ccc(OC)c(N2CCN(C(=O)c3ccc(F)cc3Cl)CC2)c1 [Compound 001, 3-[4-(2-chloro-4-fluoro-benzoyl)piperazin-1-yl]-N,N-diethyl-4-methoxy-benzenesulfonamide]",5 to 10 µM
28,"CCCN(C)S(=O)(=O)c1ccc(OCc2ccccc2)c(N2CCN(C(=O)c3ccc(F)cc3C(F)(F)F)CC2)c1 [Compound 047, 4-benzyloxy-3-[4-[4-fluoro-2-(trifluoromethyl)benzoyl]piperazin-1-yl]-N-methyl-N-propyl-benzenesulfonamide]",1 to 5 µM

# Same assay, conditions: Table 6, comparison with comparative compounds; values for 001, 009, 010 reported from Table 4; MG87 GFRα1-RET cells; read-out: Luciferase Assay EC50
row,SMILES,EC50
1,"CCN(CC)S(=O)(=O)c1ccc(OC)c(N2CCN(C(=O)c3cc(F)ccc3C(F)(F)F)CC2)c1 [Compound C02, N,N-diethyl-3-(4-(5-fluoro-2-(trifluoromethyl)benzoyl)piperazin-1-yl)-4-methoxybenzenesulfonamide, reference compound]",> 50 µM
2,"CCN(CC)S(=O)(=O)c1ccc(OC)c(N2CCN(C(=O)c3ccc(F)cc3Cl)CC2)c1 [Compound 001, 3-[4-(2-chloro-4-fluoro-benzoyl)piperazin-1-yl]-N,N-diethyl-4-methoxy-benzenesulfonamide]",5 to 10 µM

# Same assay, conditions: text statement on Table 6 results, GFRα1-RET luciferase assay; read-out: EC50
row,SMILES,EC50
1,"CCN(CC)S(=O)(=O)c1ccc(OC)c(N2CCN(C(=O)c3cc(F)ccc3C(F)(F)F)CC2)c1 [Compound C02, N,N-diethyl-3-(4-(5-fluoro-2-(trifluoromethyl)benzoyl)piperazin-1-yl)-4-methoxybenzenesulfonamide, reference compound]",> 50 µM
2,"CCN(CC)S(=O)(=O)c1ccc(OC)c(N2CCN(C(=O)c3ccc(F)cc3Cl)CC2)c1 [Compound 001, 3-[4-(2-chloro-4-fluoro-benzoyl)piperazin-1-yl]-N,N-diethyl-4-methoxy-benzenesulfonamide]",< 10 µM

# From patent US20260356810A1, “NOVEL PIPERAZINE-BASED SULFONAMIDES AND THEIR USE AS NEUROPROTECTIVE AND/OR NEURORESTORATIVE AGENTS” (GENECODE, priority 2022, published 2026)
